The source of these data is patent publication US12252524B2, “GIP/GLP1 co-agonist compounds” (Eli Lilly and Company, priority 2018, dated 2025).

Experiment [1] deals with T1, human Gcg receptor (Homo sapiens, UniProt P47871).
T1 construct: expressed in transfected cells; crude membranes
Nature of the experiment: [125I]-Glucagon binding (SPA), human Gcg receptor. The note with it: read-out: hGLcgR Ki, nM (SEM, n). The essentials: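 Cell pellets were lysed in hypotonic Tris buffer, pH 7.5, homogenized, and spun at low then high speed to give crude membranes. Ki was derived from the fitted IC50.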

The target in experiment [2] is T2, human GIP receptor (Homo sapiens, UniProt P48546).
T2 construct: expressed in transfected cells; crude membranes
T2 sequence (P48546 22-466): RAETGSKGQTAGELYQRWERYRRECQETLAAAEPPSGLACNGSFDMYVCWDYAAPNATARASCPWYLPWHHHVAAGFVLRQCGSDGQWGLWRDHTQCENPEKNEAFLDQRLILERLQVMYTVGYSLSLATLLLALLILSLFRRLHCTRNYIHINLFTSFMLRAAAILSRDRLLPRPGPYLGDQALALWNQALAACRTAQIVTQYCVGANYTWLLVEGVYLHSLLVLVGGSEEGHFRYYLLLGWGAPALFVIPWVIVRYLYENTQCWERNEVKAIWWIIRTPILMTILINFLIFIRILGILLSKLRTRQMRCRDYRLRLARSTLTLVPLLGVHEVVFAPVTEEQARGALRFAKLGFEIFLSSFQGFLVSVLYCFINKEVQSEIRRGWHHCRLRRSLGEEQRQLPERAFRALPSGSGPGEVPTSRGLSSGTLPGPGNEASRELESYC
Nature of the experiment: [125I]-GIP binding (SPA), human GIP receptor. Conditions: read-out: hGIPR Ki, nM (SEM, n).

The target in experiment [3] is human GLP-1 receptor (GLP-1R) (Homo sapiens, UniProt P43220). The experiment can be described thus: cAMP pharmacological functional assay in presence of casein, hGLP-1R. It is filed as cell-based. The note with it: HEK293 cells expressing hGLP-1R, 0.1% Casein, geometric mean; read-out: hGLP1R cAMP Rel EC50 nM (SEM, n).
The target of experiment [4] is T3, gastric inhibitory peptide receptor (GIPR) (Homo sapiens, UniProt P48546).
T3 sequence (P48546 22-466): T2 sequence (P48546 22-466)
The experiment can be described thus: cAMP pharmacological functional assay in presence of casein, hGIPR. It is filed as cell-based. Conditions: HEK293 cells expressing hGIPR, 0.1% Casein, geometric mean; read-out: hGIPR cAMP Rel EC50 nM (SEM, n).

Experiment [5] concerns the target human GLP-1R (Homo sapiens, UniProt P43220). The experiment can be described thus: [125I]-GLP-1 binding (SPA), human GLP-1 receptor. More on the design: expressed in transfected cells; crude membranes. The note with it: read-out: hGLP1R Ki, (nM) (SEM, n). The procedure, abridged: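 Frozen cell pellets are lysed on ice in hypotonic Tris buffer, pH 7.5, homogenized, and centrifuged to a membrane pellet resuspended at about 1 to 3 mg/mL. Binding is then measured in HEPES-based buffer at pH 7.4, and curves are fitted to give IC50 and Ki.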

The structures appear in SMILES notation. Numbered stars: 1 amine (or outer) side, 2 acyl side, 3 side chain; on linkers, the order of the positions; unused ones are H or OH. Square brackets hold non-standard residues; d marks the D form. Side chains are listed from the residue outwards. Peptide text beside a SMILES is read from it. * marks the point of attachment. C20 diacid = O=C(O)CCCCCCCCCCCCCCCCCCC(=O)*; C18 diacid = O=C(O)CCCCCCCCCCCCCCCCC(=O)*; αMePhe(2-F) = C[C@](N)(Cc1ccccc1F)C(=O)O; γGlu = O=C(O)[C@H](CCC(=O)[*:2])N[*:1]; αMeL = CC(C)C[C@](C)(N)C(=O)O; Dab = NCC[C@H](N)C(=O)O; Dap = NC[C@H](N)C(=O)O; AEEA = NCCOCCOCC(=O)O; Aib = CC(C)(N)C(=O)O

T1 sequence (P47871 26-477): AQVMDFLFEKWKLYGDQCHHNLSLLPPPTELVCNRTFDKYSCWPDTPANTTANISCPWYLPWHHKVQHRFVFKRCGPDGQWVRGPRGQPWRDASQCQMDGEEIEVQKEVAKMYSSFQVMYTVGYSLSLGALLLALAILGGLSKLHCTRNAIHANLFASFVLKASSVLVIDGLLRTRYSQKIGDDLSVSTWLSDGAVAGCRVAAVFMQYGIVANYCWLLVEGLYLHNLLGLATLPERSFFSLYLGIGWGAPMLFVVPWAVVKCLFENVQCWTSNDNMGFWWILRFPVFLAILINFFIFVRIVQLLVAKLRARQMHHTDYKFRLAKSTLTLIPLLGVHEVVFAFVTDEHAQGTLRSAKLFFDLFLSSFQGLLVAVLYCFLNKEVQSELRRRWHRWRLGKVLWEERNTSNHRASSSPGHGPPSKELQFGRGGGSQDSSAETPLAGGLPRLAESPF
Sequence of human GLP-1R (P43220 24-463): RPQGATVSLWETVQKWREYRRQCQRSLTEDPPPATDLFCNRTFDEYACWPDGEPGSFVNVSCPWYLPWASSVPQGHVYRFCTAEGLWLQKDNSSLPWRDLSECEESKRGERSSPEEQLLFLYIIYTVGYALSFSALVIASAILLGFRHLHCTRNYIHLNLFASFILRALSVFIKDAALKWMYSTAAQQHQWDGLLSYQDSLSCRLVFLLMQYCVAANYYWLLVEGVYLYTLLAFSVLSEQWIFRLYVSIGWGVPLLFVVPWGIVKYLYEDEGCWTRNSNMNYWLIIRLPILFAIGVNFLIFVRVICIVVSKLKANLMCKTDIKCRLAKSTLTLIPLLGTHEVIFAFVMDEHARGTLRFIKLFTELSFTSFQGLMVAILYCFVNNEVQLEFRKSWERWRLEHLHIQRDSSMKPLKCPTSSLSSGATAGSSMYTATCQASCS
Sequence of human GLP-1 receptor (GLP-1R) (P43220 24-463): as above

`CC[C@H](C)[C@H](NC(=O)[C@H](CC(C)C)NC(=O)[C@H](Cc1ccc(O)cc1)NC(=O)[C@@H](CCC(=O)O)NC(=O)[C@@H](NC(=O)[C@H](Cc1ccccc1)NC(=O)[C@H](CCC(=O)O)NC(=O)C(C)(C)NC(=O)[C@H](CCC(N)=O)NC(=O)[C@H](C)NC(=O)[C@H](CCCCNC(=O)COCCOCCNC(=O)COCCOCCNC(=O)CC[C@H](NC(=O)CCCCCCCCCCCCCCCCCCC(=O)O)C(=O)O)NC(=O)[C@H](CCN)NC(=O)[C@H](CC(=O)O)NC(=O)[C@H](CC(C)C)NC(=O)[C@](C)(CC(C)C)NC(=O)[C@@H](NC(=O)[C@H](CO)NC(=O)[C@H](Cc1ccc(O)cc1)NC(=O)[C@H](CC(=O)O)NC(=O)[C@H](CO)NC(=O)[C@@H](NC(=O)[C@](C)(Cc1ccccc1F)NC(=O)[C@@H](NC(=O)CNC(=O)[C@H](CCC(=O)O)NC(=O)C(C)(C)NC(=O)[C@@H](N)Cc1ccc(O)cc1)[C@@H](C)O)[C@@H](C)O)[C@@H](C)CC)[C@@H](C)CC)C(=O)N[C@@H](CCC(=O)O)C(=O)NCC(=O)NCC(=O)N1CCC[C@H]1C(=O)N[C@@H](CO)C(=O)N[C@@H](CO)C(=O)NCC(=O)N[C@@H](C)C(=O)N1CCC[C@H]1C(=O)N1CCC[C@H]1C(=O)N1CCC[C@H]1C(=O)N[C@@H](CO)C(N)=O` [Example 217] (H-Y[Aib]EGT[αMePhe(2-F)]TSDYSI[αMeL]LD[Dab]K([AEEA-AEEA-γGlu-C20 diacid])AQ[Aib]EFI[dE]YLIEGGPSSGAPPPS-NH2): the Ki came to 516 nM in experiment [1], 0.0376 nM in experiment [2] and 2.02 nM in experiment [5]. Also, the EC50 was 0.0383 nM in experiment [3] and 0.0563 nM in experiment [4].
As to `CC[C@H](C)[C@H](NC(=O)[C@H](CC(C)C)NC(=O)[C@H](Cc1ccc(O)cc1)NC(=O)[C@@H](CCC(=O)O)NC(=O)[C@@H](NC(=O)[C@H](Cc1ccccc1)NC(=O)[C@H](CCC(=O)O)NC(=O)C(C)(C)NC(=O)[C@H](CCC(N)=O)NC(=O)[C@H](C)NC(=O)[C@H](CCCCNC(=O)COCCOCCNC(=O)COCCOCCNC(=O)CC[C@H](NC(=O)CCCCCCCCCCCCCCCCCCC(=O)O)C(=O)O)NC(=O)[C@H](CN)NC(=O)[C@H](CC(=O)O)NC(=O)[C@H](CC(C)C)NC(=O)[C@](C)(CC(C)C)NC(=O)[C@@H](NC(=O)[C@H](CO)NC(=O)[C@H](Cc1ccc(O)cc1)NC(=O)[C@H](CC(=O)O)NC(=O)[C@H](CO)NC(=O)[C@@H](NC(=O)[C@](C)(Cc1ccccc1F)NC(=O)[C@@H](NC(=O)CNC(=O)[C@H](CCC(=O)O)NC(=O)C(C)(C)NC(=O)[C@@H](N)Cc1ccc(O)cc1)[C@@H](C)O)[C@@H](C)O)[C@@H](C)CC)[C@@H](C)CC)C(=O)N[C@@H](CCC(=O)O)C(=O)NCC(=O)NCC(=O)N1CCC[C@H]1C(=O)N[C@@H](CO)C(=O)N[C@@H](CO)C(=O)NCC(=O)N[C@@H](C)C(=O)N1CCC[C@H]1C(=O)N1CCC[C@H]1C(=O)N1CCC[C@H]1C(=O)N[C@@H](CO)C(N)=O` [Example 218] (H-Y[Aib]EGT[αMePhe(2-F)]TSDYSI[αMeL]LD[Dap]K([AEEA-AEEA-γGlu-C20 diacid])AQ[Aib]EFI[dE]YLIEGGPSSGAPPPS-NH2), the Ki in experiment [1] is 270 nM; in experiment [2] it was 0.0593 nM; in experiment [5], 2.54 nM. Besides, the EC50 in experiment [3] was 0.0423 nM; in experiment [4], 0.0413 nM.
The corresponding values for `CC[C@H](C)[C@H](NC(=O)[C@H](CC(C)C)NC(=O)[C@H](Cc1ccc(O)cc1)NC(=O)[C@@H](CCC(=O)O)NC(=O)[C@@H](NC(=O)[C@H](Cc1ccccc1)NC(=O)[C@H](CCC(=O)O)NC(=O)C(C)(C)NC(=O)[C@H](CCC(N)=O)NC(=O)[C@H](C)NC(=O)[C@H](CCCCNC(=O)COCCOCCNC(=O)COCCOCCNC(=O)CC[C@H](NC(=O)CCCCCCCCCCCCCCCCC(=O)O)C(=O)O)NC(=O)[C@H](CCC(=O)O)NC(=O)[C@H](CC(=O)O)NC(=O)[C@H](CC(C)C)NC(=O)[C@](C)(CC(C)C)NC(=O)[C@@H](NC(=O)[C@H](CO)NC(=O)[C@H](Cc1ccc(O)cc1)NC(=O)[C@H](CC(=O)O)NC(=O)[C@H](CO)NC(=O)[C@@H](NC(=O)[C@](C)(Cc1ccccc1F)NC(=O)[C@@H](NC(=O)CNC(=O)[C@H](CCC(=O)O)NC(=O)C(C)(C)NC(=O)[C@@H](N)Cc1ccc(O)cc1)[C@@H](C)O)[C@@H](C)O)[C@@H](C)CC)[C@@H](C)CC)C(=O)N[C@@H](CCC(=O)O)C(=O)NCC(=O)NCC(=O)N1CCC[C@H]1C(=O)N[C@@H](CO)C(=O)N[C@@H](CO)C(=O)NCC(N)=O` [Example 219] (H-Y[Aib]EGT[αMePhe(2-F)]TSDYSI[αMeL]LDEK([AEEA-AEEA-γGlu-C18 diacid])AQ[Aib]EFI[dE]YLIEGGPSSG-NH2) are 373 nM, 0.0689 nM, 2.01 nM, 0.0403 nM and 0.0341 nM.
On to `CC[C@H](C)[C@H](NC(=O)[C@H](CC(C)C)NC(=O)[C@H](Cc1ccc(O)cc1)NC(=O)[C@@H](CCC(=O)O)NC(=O)[C@@H](NC(=O)[C@H](Cc1ccccc1)NC(=O)[C@H](CCC(=O)O)NC(=O)C(C)(C)NC(=O)[C@H](CCC(N)=O)NC(=O)[C@H](C)NC(=O)[C@H](CCCCNC(=O)COCCOCCNC(=O)COCCOCCNC(=O)CC[C@H](NC(=O)CCCCCCCCCCCCCCCCC(=O)O)C(=O)O)NC(=O)[C@H](CCC(=O)O)NC(=O)[C@H](CC(=O)O)NC(=O)[C@H](CC(C)C)NC(=O)[C@](C)(CC(C)C)NC(=O)[C@@H](NC(=O)[C@H](CO)NC(=O)[C@H](Cc1ccc(O)cc1)NC(=O)[C@H](CC(=O)O)NC(=O)[C@H](CO)NC(=O)[C@@H](NC(=O)[C@](C)(Cc1ccccc1F)NC(=O)[C@@H](NC(=O)CNC(=O)[C@H](CCC(=O)O)NC(=O)C(C)(C)NC(=O)[C@@H](N)Cc1ccc(O)cc1)[C@@H](C)O)[C@@H](C)O)[C@@H](C)CC)[C@@H](C)CC)C(=O)N[C@@H](CCC(=O)O)C(=O)NCC(=O)NCC(N)=O` [Example 220] (H-Y[Aib]EGT[αMePhe(2-F)]TSDYSI[αMeL]LDEK([AEEA-AEEA-γGlu-C18 diacid])AQ[Aib]EFI[dE]YLIEGG-NH2; N-terminus assumed), for which the Ki is 377 nM in experiment [1], 0.0919 nM in experiment [2] and 2.71 nM in experiment [5]. Moreover, the EC50 in experiment [3] was 0.0312 nM; in experiment [4] it was 0.0315 nM.
In the case of `CC[C@H](C)[C@H](NC(=O)[C@H](CC(C)C)NC(=O)[C@H](Cc1ccc(O)cc1)NC(=O)[C@@H](CCC(=O)O)NC(=O)[C@@H](NC(=O)[C@H](Cc1ccccc1)NC(=O)[C@H](CCC(=O)O)NC(=O)C(C)(C)NC(=O)[C@H](CCC(N)=O)NC(=O)[C@H](C)NC(=O)[C@H](CCCCNC(=O)COCCOCCNC(=O)COCCOCCNC(=O)CC[C@H](NC(=O)CCCCCCCCCCCCCCCCC(=O)O)C(=O)O)NC(=O)[C@H](CCC(=O)O)NC(=O)[C@H](CC(=O)O)NC(=O)[C@H](CC(C)C)NC(=O)[C@](C)(CC(C)C)NC(=O)[C@@H](NC(=O)[C@H](CO)NC(=O)[C@H](Cc1ccc(O)cc1)NC(=O)[C@H](CC(=O)O)NC(=O)[C@H](CO)NC(=O)[C@@H](NC(=O)[C@](C)(Cc1ccccc1F)NC(=O)[C@@H](NC(=O)CNC(=O)[C@H](CCC(=O)O)NC(=O)C(C)(C)NC(=O)[C@@H](N)Cc1ccc(O)cc1)[C@@H](C)O)[C@@H](C)O)[C@@H](C)CC)[C@@H](C)CC)C(=O)N[C@@H](CCC(=O)O)C(=O)NCC(=O)NCC(=O)N1CCC[C@H]1C(=O)N[C@@H](CO)C(=O)N[C@@H](CO)C(=O)NCC(=O)N[C@@H](C)C(=O)N1CCC[C@H]1C(=O)N1CCC[C@H]1C(=O)N1CCC[C@H]1C(=O)N[C@@H](CO)C(N)=O` [Example 221] (H-Y[Aib]EGT[αMePhe(2-F)]TSDYSI[αMeL]LDEK([AEEA-AEEA-γGlu-C18 diacid])AQ[Aib]EFI[dE]YLIEGGPSSGAPPPS-NH2), the Ki came to 154 nM in experiment [1], 0.0414 nM in experiment [2] and 1.77 nM in experiment [5]. The values for the EC50 in experiment [3] and in experiment [4] were 0.057 nM and 0.0445 nM, respectively.

A word on the Ki: it is the dissociation constant of the complex between target and ligand, obtained from inhibition or displacement. Usually EC50 stands for the concentration giving half of the maximal effect.
